Measurements taken from patent US8609836B2, “4-aryl-2-anilino-pyrimidines” (Janssen Pharmaceutica NV, priority 2008, dated 2013).

How the values were obtained:
U87-MG = assay: Cellular proliferation assay (Alamar blue), U87-MG; assay type: cell-based; conditions: Homo sapiens, U-87 MG; 10% FCS; 72 hours with compound; Alamar blue 6 h; read-out: U87-MG (cellular proliferation assay, Table 4) (converted)
Procedure, shortened: (§1)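 Cells were seeded in medium with 10% FCS at 37° C, 5% CO2, left 24 h without compound, then exposed to compounds for 72 h. Viability was read with Alamar blue (resazurin 9 μg/ml, K-ferrocyanide and K-ferricyanide 90 μM each), 6 h for U87-MG, 4 h for HCT-116, 24 h for A2780 and MDA-MB-231.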

HCT-116 = assay: Cellular proliferation assay (Alamar blue), HCT-116; assay type: cell-based; conditions: Homo sapiens, 10% FCS, 72 hours with compound, Alamar blue 4 h
Procedure, shortened: as §1

A2780 = assay: Cellular proliferation assay (Alamar blue), A2780; assay type: cell-based; conditions: Homo sapiens, 10% FCS, 72 hours with compound, Alamar blue 24 h, read-out: A2780 (cellular proliferation assay, Table 4) (converted)
Procedure, shortened: as §1

PLK1 T210D (h) = PLK1 T210D (h) (Homo sapiens, UniProt P53350, T210D); assay: PLK1 human kinase inhibition, SPA; assay type: biochemical; conditions: read-out: PLK1 pIC50 (converted)
Sequence of PLK1 T210D (h) (P53350 whole entry T210D): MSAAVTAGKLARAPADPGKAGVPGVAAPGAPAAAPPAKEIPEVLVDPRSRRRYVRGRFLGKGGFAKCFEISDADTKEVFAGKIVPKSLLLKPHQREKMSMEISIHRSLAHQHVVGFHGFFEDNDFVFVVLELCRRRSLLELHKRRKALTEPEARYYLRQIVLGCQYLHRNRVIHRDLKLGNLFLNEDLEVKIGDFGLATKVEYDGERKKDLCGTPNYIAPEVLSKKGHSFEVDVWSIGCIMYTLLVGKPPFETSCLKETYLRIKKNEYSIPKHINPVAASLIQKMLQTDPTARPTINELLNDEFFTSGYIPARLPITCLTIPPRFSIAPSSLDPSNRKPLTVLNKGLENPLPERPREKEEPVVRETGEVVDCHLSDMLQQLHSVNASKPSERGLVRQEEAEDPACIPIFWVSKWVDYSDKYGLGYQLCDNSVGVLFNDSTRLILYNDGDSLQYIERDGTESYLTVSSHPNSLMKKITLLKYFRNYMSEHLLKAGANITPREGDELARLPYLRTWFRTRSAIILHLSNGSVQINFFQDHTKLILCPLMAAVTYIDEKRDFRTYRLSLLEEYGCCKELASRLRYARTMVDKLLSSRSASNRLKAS
Procedure, shortened: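 Radiometric SPA with PLK1 T210D (0.125 ng/ml) in 50 mM Hepes pH 8.0, 2 mM MnCl2, 1 mM DTT, 2 μM biotinylated peptide, 0.1 μM ATP plus 2 nM [γ-33P]ATP. 40 min at room temperature, EDTA stop. Phosphorylated substrate captured on streptavidin PVT beads, scintillation imaged.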

PLK2 (h) = PLK2 (h) (Homo sapiens, UniProt Q9NYY3); assay: PLK2 human kinase inhibition, SPA; assay type: biochemical; conditions: read-out: PLK2 pIC50 (converted)
Sequence of PLK2 (h) (Q9NYY3 whole entry): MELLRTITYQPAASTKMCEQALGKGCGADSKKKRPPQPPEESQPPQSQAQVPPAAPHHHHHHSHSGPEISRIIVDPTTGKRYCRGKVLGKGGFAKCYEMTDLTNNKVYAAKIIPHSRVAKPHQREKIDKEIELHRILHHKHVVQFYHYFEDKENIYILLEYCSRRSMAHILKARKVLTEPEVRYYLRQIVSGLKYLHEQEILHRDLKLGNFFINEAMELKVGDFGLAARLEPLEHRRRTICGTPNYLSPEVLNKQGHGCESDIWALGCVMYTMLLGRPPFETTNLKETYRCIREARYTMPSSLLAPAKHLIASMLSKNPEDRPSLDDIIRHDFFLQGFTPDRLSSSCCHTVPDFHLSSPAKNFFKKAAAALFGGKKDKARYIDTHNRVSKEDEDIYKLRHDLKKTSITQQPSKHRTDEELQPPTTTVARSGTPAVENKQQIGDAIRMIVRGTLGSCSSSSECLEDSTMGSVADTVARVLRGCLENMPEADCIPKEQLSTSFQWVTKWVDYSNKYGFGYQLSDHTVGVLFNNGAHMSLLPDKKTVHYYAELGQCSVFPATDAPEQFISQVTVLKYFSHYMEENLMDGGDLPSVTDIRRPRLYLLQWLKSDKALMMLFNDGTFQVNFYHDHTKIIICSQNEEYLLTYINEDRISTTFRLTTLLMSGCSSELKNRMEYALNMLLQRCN
Procedure, shortened: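 SPA read on Leadseeker: PLK2 (30 μg/ml) with 2 μM biotinylated peptide, 0.1 μM ATP plus 2 nM [γ-33P]ATP in 50 mM Hepes pH 8.0, 2 mM MnCl2, 1 mM DTT. Reaction ran 20 min at room temperature, then EDTA stop and streptavidin PVT beads.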

PLK3 (h) = PLK3 (h) (Homo sapiens, UniProt Q9H4B4); assay: PLK3 human kinase inhibition, SPA; assay type: biochemical; conditions: read-out: PLK3 pIC50 (converted)
Sequence of PLK3 (h) (Q9H4B4 whole entry): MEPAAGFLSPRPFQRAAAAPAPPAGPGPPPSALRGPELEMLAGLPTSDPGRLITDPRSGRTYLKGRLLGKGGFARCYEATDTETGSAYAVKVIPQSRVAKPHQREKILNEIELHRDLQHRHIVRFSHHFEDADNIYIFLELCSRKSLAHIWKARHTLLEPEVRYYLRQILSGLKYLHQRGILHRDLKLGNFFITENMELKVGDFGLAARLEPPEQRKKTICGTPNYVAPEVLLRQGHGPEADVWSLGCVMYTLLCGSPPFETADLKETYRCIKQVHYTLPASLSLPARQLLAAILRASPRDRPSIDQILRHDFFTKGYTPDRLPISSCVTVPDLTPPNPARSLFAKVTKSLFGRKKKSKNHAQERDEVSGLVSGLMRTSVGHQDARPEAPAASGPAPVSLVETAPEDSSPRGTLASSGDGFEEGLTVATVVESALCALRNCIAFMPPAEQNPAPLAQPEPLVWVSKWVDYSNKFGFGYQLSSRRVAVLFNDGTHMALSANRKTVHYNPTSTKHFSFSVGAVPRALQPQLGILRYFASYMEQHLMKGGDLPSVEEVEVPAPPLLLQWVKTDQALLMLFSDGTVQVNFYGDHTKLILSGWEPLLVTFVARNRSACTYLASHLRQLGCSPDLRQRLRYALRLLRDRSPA
Procedure, shortened: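 SPA: PLK3 (h) at 30 μg/ml with 2 μM biotinylated peptide, 0.1 μM ATP plus 2 nM [γ-33P]ATP in 50 mM Hepes pH 8.0, 2 mM MnCl2 and 1 mM DTT. Incubated 20 min at room temperature, then stopped with EDTA and streptavidin PVT beads. Scintillation imaged on Leadseeker.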

GSK3β (h) = GSK3β (h) (Homo sapiens, UniProt P49841); assay: GSK-3β human kinase inhibition, SPA; assay type: biochemical; conditions: read-out: GSK3b pIC50 (converted)
Sequence of GSK3β (h) (P49841 whole entry): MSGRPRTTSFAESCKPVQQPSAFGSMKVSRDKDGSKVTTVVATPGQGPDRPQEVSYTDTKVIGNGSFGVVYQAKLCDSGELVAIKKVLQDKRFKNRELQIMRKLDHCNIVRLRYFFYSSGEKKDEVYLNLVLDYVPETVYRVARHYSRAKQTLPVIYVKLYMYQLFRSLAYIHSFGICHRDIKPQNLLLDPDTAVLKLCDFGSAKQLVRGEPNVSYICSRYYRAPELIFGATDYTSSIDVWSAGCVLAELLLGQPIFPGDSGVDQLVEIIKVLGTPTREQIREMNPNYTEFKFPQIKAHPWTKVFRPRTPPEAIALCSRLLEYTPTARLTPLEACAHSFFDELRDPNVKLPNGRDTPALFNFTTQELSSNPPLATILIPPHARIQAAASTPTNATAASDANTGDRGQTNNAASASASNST
Procedure, shortened: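 Scintillation proximity assay: GSK3β (1 μg/ml) with 1 μM biotinylated peptide, 1 μM ATP plus [γ-33P]ATP in Tris pH 7.4, MgCl2, DTT. 60 min at room temperature, stopped with EDTA and streptavidin PVT beads; phosphorylation read by Leadseeker imaging.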

CDK4/CyclinD1 (h) = CDK4/CyclinD1 (h) (Homo sapiens, UniProt P11802); assay: CDK4/CyclinD1 human kinase inhibition, SPA with GST-pRb substrate; assay type: biochemical; conditions: read-out: CDK4 pIC50 (converted)
Sequence of CDK4/CyclinD1 (h) (P11802 whole entry): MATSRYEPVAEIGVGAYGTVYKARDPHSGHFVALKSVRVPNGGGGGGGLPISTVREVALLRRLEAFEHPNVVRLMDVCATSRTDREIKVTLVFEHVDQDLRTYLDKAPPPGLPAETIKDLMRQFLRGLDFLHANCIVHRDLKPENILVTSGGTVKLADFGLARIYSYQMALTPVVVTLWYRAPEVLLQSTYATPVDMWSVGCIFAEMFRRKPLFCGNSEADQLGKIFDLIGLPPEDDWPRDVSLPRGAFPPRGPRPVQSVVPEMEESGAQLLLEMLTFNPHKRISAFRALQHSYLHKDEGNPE
Sequence of CDK4/CyclinD1 (h) (P24385 whole entry partner): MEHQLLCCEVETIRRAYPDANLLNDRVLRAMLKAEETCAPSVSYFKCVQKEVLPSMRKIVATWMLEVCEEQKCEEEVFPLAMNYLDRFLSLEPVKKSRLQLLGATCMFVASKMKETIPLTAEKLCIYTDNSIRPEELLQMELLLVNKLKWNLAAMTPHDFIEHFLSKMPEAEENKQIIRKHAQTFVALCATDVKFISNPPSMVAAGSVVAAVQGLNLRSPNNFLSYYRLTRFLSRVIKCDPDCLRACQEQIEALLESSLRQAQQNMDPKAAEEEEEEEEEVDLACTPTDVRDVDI
Procedure, shortened: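 Human CDK4/CyclinD1 (2.5 μg/ml) was incubated with 40 μg/ml GST-pRb and 2 nM [γ-33P]ATP in 50 mM Hepes pH 7.5, 8 mM NaF, 20 mM MgCl2, 1 mM DTT for 60 min at room temperature. EDTA stop with glutathione SPA beads; phosphorylation read by scintillation counting.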

H1299 = assay: Cellular proliferation assay (Alamar blue), H1299; assay type: cell-based; conditions: Homo sapiens, NCI-H1299; 10% FCS; 72 hours with compound; Alamar blue 4 h
Procedure, shortened: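 This proliferation assay on NCI-H1299 cells used an initial 24-hour compound-free incubation after seeding, followed by 72 hours of compound treatment with 10% FCS serum at 37° C. and 5% (v/v) CO2. Viable cells were quantified by a 4 h Alamar blue incubation and fluorescent plate reading at 544 nm/590 nm, and effects were expressed relative to control cells.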

Structure (SMILES) | IC50 (U87-MG) [µM] | IC50 (HCT-116) [µM] | IC50 (A2780) [µM] | IC50 (PLK1 T210D (h)) [µM] | IC50 (PLK2 (h)) [µM] | IC50 (PLK3 (h)) [µM] | IC50 (GSK3β (h)) [µM] | IC50 (CDK4/CyclinD1 (h)) [µM] | IC50 (H1299) [µM]
C[C@@H]1NCc2cc(ccc2N2CCOCC2)Nc2nccc(n2)-c2cccc(c2)CNC1=O [Compound 182] | > 10 | > 10 | > 10 | > 10 | > 10 | > 10 | 0.661 | 6.03 | > 10
C[C@@H]1NCc2ccc(Cl)c(c2)Nc2nccc(n2)-c2cccc(c2)CNC1=O [Compound 186] | > 10 | > 10 | > 10 | > 10 | > 10 | > 10 | > 10 | > 10 | > 10
O=C1NCc2cccc(c2)-c2ccnc(n2)Nc2cc(ccc2Cl)CN[C@H]1CO [Compound 188] | > 10 | > 10 | > 10 | > 10 | > 10 | > 10 | 6.61 | > 10 | > 10
O=C1NCc2cccc(c2)-c2ccnc(n2)Nc2cc(ccc2Cl)CN[C@H]1Cc1ccccc1 [Compound 189] | > 10 | > 10 | > 10 | > 10 | > 10 | > 10 | 6.92 | 5.75 | > 10
C[C@@H]1NCc2ccc(cc2)Nc2nccc(n2)-c2cccc(c2)CNC1=O [Compound 190] | > 10 | > 10 | > 10 | > 10 | > 10 | > 10 | 1.29 | > 10 | > 10
O=C1NCc2cccc(c2)-c2ccnc(n2)Nc2ccc(cc2)CN[C@H]1Cc1ccccc1 [Compound 192] | > 10 | > 10 | > 10 | > 10 | > 10 | > 10 | > 10 | > 10 | > 10
O=C1CN2CCN(CC2)Cc2ccc(cc2)Nc2nccc(n2)-c2cccc(c2)CN1 [Compound 193] | > 10 | > 10 | > 10 | > 10 | > 10 | > 10 | 3.24 | 4.37 | > 10
O=C1CN2CCN(CC2)Cc2cc(ccc2N2CCOCC2)Nc2nccc(n2)-c2ccc(cc2)CN1 [Compound 194] | > 10 | > 10 | > 10 | > 10 | > 10 | > 10 | 6.03 | 1.7 | > 10
O=C1CN2CCN(CC2)Cc2ccc(Cl)c(c2)Nc2nccc(n2)-c2cccc(c2)CN1 [Compound 195] | > 10 | > 10 | > 10 | > 10 | > 10 | > 10 | > 10 | > 10 | > 10
O=C1CN2CCN(CC2)Cc2cccc(c2)Nc2nccc(n2)-c2cccc(c2)CN1 [Compound 196] | > 10 | > 10 | > 10 | > 10 | > 10 | > 10 | 1.07 | 6.17 | > 10

More lines, now with the values ahead:

IC50 (U87-MG) [µM] | IC50 (HCT-116) [µM] | IC50 (A2780) [µM] | IC50 (PLK1 T210D (h)) [µM] | IC50 (PLK2 (h)) [µM] | IC50 (PLK3 (h)) [µM] | IC50 (GSK3β (h)) [µM] | IC50 (CDK4/CyclinD1 (h)) [µM] | IC50 (H1299) [µM] | Structure (SMILES)
6.76 | > 10 | > 10 | > 10 | > 10 | > 10 | 1.45 | 2.14 | > 10 | CN1CCN(C)c2ccc(cn2)-c2ccnc(n2)Nc2cc(c3c(c2)OCO3)CN2CCC[C@H]2C1=O [Compound 168]
6.17 | 6.61 | > 10 | > 10 | > 10 | > 10 | > 10 | > 10 | > 10 | COc1cc2cc(c1)Nc1nccc(n1)-c1ccc(OC)c(c1)CN(C)CCCNC(=O)[C@@H]1CCCN1C2 [Compound 171]
9.12 | 4.9 | > 10 | > 10 | > 10 | > 10 | > 10 | > 10 | > 10 | COc1ccc2cc1CN(C)CCNC(=O)[C@@H]1CCCN1Cc1cc(C#N)cc(c1)Nc1nccc-2n1 [Compound 181]
> 10 | 5.37 | 5.01 | > 10 | > 10 | > 10 | 0.102 | 1.17 | 9.77 | C[C@@H]1NCc2cccc(c2)Nc2nccc(n2)-c2cccc(c2)CNC1=O [Compound 184]
6.76 | 6.92 | > 10 | > 10 | > 10 | > 10 | 0.0275 | > 10 | 2.63 | O=C1NCc2cccc(c2)-c2ccnc(n2)Nc2cccc(c2)CN[C@H]1Cc1ccccc1 [Compound 185]
> 10 | 1.35 | 5.5 | > 10 | > 10 | > 10 | 0.0537 | 1.2 | 6.17 | O=C1NCc2cccc(c2)-c2ccnc(n2)Nc2cccc(c2)CN[C@H]1CO [Compound 187]
